PubChem BioAssay (NCI)
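Where inhibition never reached the appropriate level, the endpoint shown equals the highest concentration tested. Otherwise, values were interpolated linearly from a five-concentration, 48-hour dose response in 96-well plates. The concentration for 50% growth inhibition is given as GI50. TGI: total growth inhibition.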

Key:
Test in all cases: inhibition of tumour cell growth, NCI panel, 48 h
[1] = test system: MDA-MB-435
[2] = test system: NCI-H23 lung
[3] = test system: SK-MEL-5 melanoma
[4] = test system: RXF 393 renal
[5] = test system: UACC-257 melanoma
[6] = test system: HS 578T breast
[7] = test system: MDA-MB-468 breast
[8] = test system: SK-MEL-28 melanoma
[9] = test system: SF-268 CNS
[10] = test system: U251 CNS
[11] = test system: UACC-62 melanoma
[12] = test system: TK-10 renal
[13] = test system: NCI-H522 lung
[14] = test system: IGROV1 ovarian
[15] = test system: NCI-H460 lung
[16] = test system: BT-549 breast
[17] = test system: CCRF-CEM leukemia
[18] = test system: DU-145 prostate
[19] = test system: T-47D breast
[20] = test system: ACHN renal
[21] = test system: HCT-15 colon
[22] = test system: M14 melanoma
[23] = test system: SF-295 CNS
[24] = test system: OVCAR-5 ovarian
[25] = test system: A498 renal
[26] = test system: NCI-H226 lung
[27] = test system: MCF7 breast
[28] = test system: MDA-MB-231 breast
[29] = test system: A549 NSCLC
[30] = test system: SF-539 CNS
[31] = test system: UO-31 renal
[32] = test system: HT29 colon
[33] = test system: OVCAR-3 ovarian
[34] = test system: SN12C renal
[35] = test system: SK-MEL-2 melanoma
[36] = test system: K-562 leukemia
[37] = test system: CAKI-1 renal
[38] = test system: HCC-2998 colon
[39] = test system: OVCAR-4 ovarian
[40] = test system: RPMI-8226 leukemia
[41] = test system: SNB-75 CNS
[42] = test system: EKVX NSCLC
[43] = test system: 786-0 renal
[44] = test system: SNB-19 CNS
[45] = test system: LOX IMVI melanoma
[46] = test system: HOP-92 NSCLC
[47] = test system: OVCAR-8 ovarian
[48] = test system: SK-OV-3 ovarian
[49] = test system: MOLT-4 leukemia
[50] = test system: HL-60(TB) leukemia
[51] = test system: PC-3 prostate
[52] = test system: SW-620 colon
[53] = test system: MALME-3M melanoma
[54] = test system: HOP-62 NSCLC
[55] = test system: KM12 colon
[56] = test system: HCT-116 colon
[57] = test system: COLO 205 colon
[58] = test system: SR leukemia

O=C(/C=C/c1cccc(Br)c1)c1nc2ccccc2n1Cc1ccc(Br)cc1
GI50 [1]: 2.01 µM | TGI [1]: 4.79 µM | GI50 [2]: 1.77 µM | TGI [2]: 3.99 µM | GI50 [3]: 1.7 µM | TGI [3]: 3.55 µM | GI50 [4]: 1.54 µM | TGI [4]: 2.95 µM | GI50 [5]: 3.04 µM | TGI [5]: 12 µM | GI50 [6]: 3.71 µM | TGI [6]: > 100 µM | GI50 [7]: 1.87 µM | TGI [7]: 3.85 µM | GI50 [8]: 1.82 µM | TGI [8]: 3.68 µM | GI50 [9]: 4.93 µM | TGI [9]: 71.7 µM | GI50 [10]: 1.7 µM | TGI [10]: 3.38 µM | GI50 [11]: 1.54 µM | TGI [11]: 3.28 µM | GI50 [12]: 3.07 µM | TGI [12]: 11.6 µM | GI50 [13]: 1.73 µM | TGI [13]: 3.48 µM | GI50 [14]: 2.16 µM | TGI [14]: 5.4 µM | GI50 [15]: 1.77 µM | TGI [15]: 3.87 µM | GI50 [16]: 1.77 µM | TGI [16]: 3.55 µM | GI50 [17]: 2.09 µM | TGI [17]: > 100 µM | GI50 [18]: 4.1 µM | TGI [18]: 15.9 µM | GI50 [19]: 2.33 µM | TGI [19]: 9.62 µM | GI50 [20]: 2.41 µM | TGI [20]: 6.53 µM | GI50 [21]: 1.56 µM | TGI [21]: 3.19 µM | GI50 [22]: 1.77 µM | TGI [22]: 3.59 µM | GI50 [23]: 2.07 µM | TGI [23]: 5.11 µM | GI50 [24]: 2.06 µM | TGI [24]: 4.08 µM | GI50 [25]: 13.5 µM | TGI [25]: 28.1 µM | GI50 [26]: 2.45 µM | TGI [26]: 6.13 µM | GI50 [27]: 1.7 µM | TGI [27]: 5.71 µM | GI50 [28]: 2.06 µM | TGI [28]: 4.61 µM | GI50 [29]: 3.97 µM | TGI [29]: > 100 µM | GI50 [30]: 1.99 µM | TGI [30]: 3.92 µM | GI50 [31]: 1.37 µM | TGI [31]: 2.78 µM | GI50 [32]: 2.13 µM | TGI [32]: 4.9 µM | GI50 [33]: 1.56 µM | TGI [33]: 3.3 µM | GI50 [34]: 3.42 µM | TGI [34]: 12.9 µM | GI50 [35]: 1.66 µM | TGI [35]: 3.29 µM | GI50 [36]: 2.6 µM | TGI [36]: > 100 µM | GI50 [37]: 1.85 µM | TGI [37]: 5.35 µM | GI50 [38]: 1.69 µM | TGI [38]: 3.12 µM | GI50 [39]: 4.07 µM | TGI [39]: > 100 µM | GI50 [40]: 2.39 µM | TGI [40]: 8.27 µM | GI50 [41]: 3.4 µM | TGI [41]: 25.2 µM | GI50 [42]: 2.4 µM | TGI [42]: 7.64 µM | GI50 [43]: 1.86 µM | TGI [43]: 3.7 µM | GI50 [44]: 1.77 µM | TGI [44]: 3.64 µM | GI50 [45]: 1.5 µM | TGI [45]: 2.9 µM | GI50 [46]: 1.6 µM | TGI [46]: 6.46 µM | GI50 [47]: 2.15 µM | TGI [47]: 5.71 µM | GI50 [48]: 14.4 µM | TGI [48]: > 100 µM | GI50 [49]: 2.11 µM | TGI [49]: 9.16 µM | GI50 [50]: 1.75 µM | TGI [50]: 5.12 µM | GI50 [51]: 3.3 µM | TGI [51]: 14.9 µM | GI50 [52]: 1.6 µM | TGI [52]: 3.59 µM | GI50 [53]: 1.91 µM | TGI [53]: 3.97 µM | GI50 [54]: 2.16 µM | TGI [54]: 4.76 µM | GI50 [55]: 2.53 µM | TGI [55]: 7.44 µM | GI50 [56]: 1.67 µM | TGI [56]: 3.14 µM | GI50 [57]: 1.99 µM | TGI [57]: 4.11 µM | GI50 [58]: 2.53 µM | TGI [58]: 8.96 µM
